In patent US20250304526A1, “HIGH AND MULTIPLE REDOX POTENTIAL, STABLE, AND SOLUBLE BIS-DIARYLAMINE DERIVATIVES AND USES THEREOF” (University of Kentucky Research Foundation, priority 2024, published 2025):

What was measured:
Assay type in all cases: physicochemical
[1] = Cyclic voltammetry (redox potentials, diffusion coefficients); settings: for Redox peak of radical cation formation (first oxidation potential): 1 mM, 0.1 M TBAPF6 in CH3CN, glassy carbon; for Kc (comproportionation constant): calculated from ΔE at 298 K
Description: CV measurements were carried out in a nitrogen-filled glovebox at ambient glovebox temperature using a VSP-300 potentiostat (BioLogic). Unless otherwise indicated, the CVs were recorded in 0.2 M TBAPF6/CH3CN as electrolyte with 3 mm diameter glassy carbon (CH Instruments, Inc.) as the working electrode. A non-aqueous Ag/Ag^+ (silver wire immersed in CH3CN containing 0.1 M TBABF4 and 0.01 M AgBF4) electrode was used as the reference electrode, and a Pt wire (CH Instruments, Inc.) as the counter electrode. Before each measurement, glassy carbon electrodes were mechanically polished with an aqueous slurry of graded alumina (0.05 μm), then ultra-sonicated in water then acetone for 1 min each. Voltammograms were recorded at a scan rate of 100 mV·s^−1. Ferrocene was used as an internal reference and the oxidation potentials were calibrated with respect to ferrocene/ferrocenium (Cp2Fe^0/+) redox couple. The diffusion coefficients were determined using Randles-Sevick equation: […]
with R being the perfect gas constant (8.314 J·mol^−1·K^−1), F the Faraday's constant (96485 C·mol^−1), T the absolute temperature (˜298 K), ip is the peak current intensity (in A), n the number of transferred electrons, A the area of the electrode (cm^2), D the diffusion coefficient (cm^2·s^−1), v the scan rate (V·s^−1) and c the concentration (mol·cm^−3). Data obtained from voltammograms at scan rates of 25, 50, 75, 100, 200, 300 and 400 mV·s^−1 were used for the calculation of diffusion coefficients.
Electrochemical characterization of 1-4 was achieved by cyclic voltammetry (CV) in 0.1 M TBAPF6 in CH3CN. Glassy carbon was used as the working electrode and 1 mM of active materials were used. All derivatives featured two distinct one-electron oxidation waves upon voltage sweep. The first and the second waves correspond to the sequential neutral to radical-cation and radical-cation to dication transformations, respectively. These features are in line with the presence of two redox centers in these molecules. The redox peaks associated with the radical cation formation for molecules 1 and 2 are centered at 0 and 0.17 V vs Fc^+/Fc, respectively (FIG. 4). These values are in line with the data reported in literature for the same molecules.^8 Note that in previous literature the electrochemistry is reported in 0.1 M TBAClO4 in dichloromethane and reported versus a Ag/AgCl reference electrode. The Fc^+/Fc couple has a redox potential at 0.403 V vs SCE and 0.44 V vs Ag/AgCl reference electrode. On the other hand, molecules 3 and 4 feature the radical cation transformation redox peaks at 0.41 and 0.53 V vs Fc^+/Fc, respectively (FIG. 4).
In fact, these molecules belong to a class of compounds known as mixed-valence (MV) compounds. Mixed valency is a term that refers to a chemical species, whether organic or inorganic, with two or more redox centers that have different oxidation stated. This concept was first introduced in 1915 by Hofmann and Hoeschele. MV species are usually intensely colored due to the unique electronic transitions associated with intervalence electron transfer. CV is a useful technique in studying MV species since it provides insights on how stable one ionic species will be with respect to disproportionation, using the comproportionation constant (Kc). Kc is used to measure the ease of isolating the radical-cation rather than obtaining a mixture of neutral, radical-cationic, and dicationic species. Kc can be calculated from the ΔE which is the value of the redox potential difference between the first and the second oxidation events. Kc is a quantity used to evaluate the electronic communication between two redox centers in mixed-valence species. Large comproportionation constant, i.e. a substantial value of ΔE, is a crucial requirement for the isolation of mixed-valence species separately of other oxidation states of the species. Kc is defined as: […]

[2] = UV-NIR spectroscopy of radical cations (IVCT band, Hush analysis); settings: for ν1/2, Hush (Hush-theory predicted band width): predicted from νmax at 298 K; for ν1/2 (measured IVCT band width) / νmax (IVCT band): radical cation, 0.5 mM in pure CH3CN
Description: (§1) In an argon-filled glove box, 0.5 mM solutions of neutral and radical cation were prepared in acetonitrile and pipetted into 1 mm path length optical glass cuvettes. The choice of this path length of cuvette is dictated by the aim to prevent the UV-vis detector saturation of the intensely colored cationic species. All samples destined to UV-vis stability monitoring contained 0.1 M TBAPF6 whereas UV-NIR samples were in pure CH3CN. Solutions were added to the cuvettes inside an argon filled glovebox, sealed with a Teflon screw cap and removed from the glovebox for spectral analysis. UV-vis spectra were collected in an Agilent 8453 diode-array spectrometer. Spectra were collected at 0, 1, 3, 4, 5, 6 and 24 h after dissolution.
The synthesized cations were also characterized using UV-NIR spectroscopy (FIG. 3). From FIG. 3 it can be clearly seen that the spectra of the charged forms change dramatically as compared to the neutral forms. […] These values match perfectly to those reported by Lambert and Noll for the same molecules using spectroelectrochemistry in 0.1 M TBAPF6 in dichloromethane.^21
Class II or III assignment is based on electronic spectroscopy; the broadness and line shape of the IVCT transition is analyzed in this case. Analysis of the line broadness and line shape of the IVCT band is also used to determine whether a mixed-valence species belongs to Class II or III. Hush theory provides a relationship that simplifies at 298 K to:
where vmax is the maximum absorption of the IVCT band given in […].

[3] = Stability via UV-vis spectroscopy over 24 h; settings: 0.5 mM in 0.1 M TBAPF6/CH3CN
Description: as §1
UV-vis spectroscopy provides a means to monitor the stabilities of the radical cations over prolonged time scales that extend beyond that offered by CV. This is possible since all the charged forms show absorption features in the UV and visible regions, which enables monitoring of the change of concentrations over the course of time, based on changes in peak intensities.
The radical cation samples were prepared in 0.1 M TBAPF6/CH3CN inside an argon-filled glovebox and transferred into sealed cuvettes to prevent contact with atmospheric moisture/air when taken outside the glovebox. […]
The neutral samples of each molecule were also monitored for the sake of comparison. […]

Row | SMILES | Redox peak of radical cation formation (first oxidation potential) [1] | Kc (comproportionation constant) [1] | ν1/2, Hush (Hush-theory predicted band width) [2] | ν1/2 (measured IVCT band width) [2] | νmax (IVCT band) [2] | Stability of radical cation UV-vis absorption spectrum [3] | νmax (IVCT band) ([2]; listed as 1^⋅)
1 | Cc1ccc(C(F)(F)F)cc1N(c1ccc(-c2ccc(N(c3cc(C(F)(F)F)ccc3C)c3cc(C(F)(F)F)ccc3C)cc2)cc1)c1cc(C(F)(F)F)ccc1C [4^+⋅] | 0.53 V vs Fc^+/Fc | 5 × 10^2 | 4362 cm⁻¹ | 2519 cm⁻¹ | 8238 cm⁻¹ | rapid decay | –
2 | COc1ccc(N(c2ccc(OC)cc2)c2ccc(-c3ccc(N(c4ccc(OC)cc4)c4ccc(OC)cc4)cc3)cc2)cc1 [2^+⋅] | 0.17 V vs Fc^+/Fc | 5 × 10^2 | 4740 cm⁻¹ | 3524 cm⁻¹ | 9728 cm⁻¹ | – | –
3 | COc1ccc(N(c2ccc(OC)cc2)c2ccc(N(c3ccc(OC)cc3)c3ccc(OC)cc3)cc2)cc1 [1^+⋅] | 0 V vs Fc^+/Fc | 3 × 10^6 | 4756 cm⁻¹ | 3846 cm⁻¹ | 9790 cm⁻¹ | – | ~10000 cm⁻¹
4 | Cc1ccc(C(F)(F)F)cc1N(c1ccc(N(c2cc(C(F)(F)F)ccc2C)c2cc(C(F)(F)F)ccc2C)cc1)c1cc(C(F)(F)F)ccc1C [3^+⋅] | 0.41 V vs Fc^+/Fc | 3 × 10^8 | 5448 cm⁻¹ | 4018 cm⁻¹ | 12849 cm⁻¹ | very subtle changes | –
